What was measured:
GALAP (Galium aparine) [1] = experiment: Preemergence herbicidal evaluation; type: in vivo; settings: rated 4-5 weeks after treatment
Method in brief: (§1)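 Test compound is applied in aqueous acetone to cups just after seeding. Cups are watered and maintained on greenhouse benches. Each cup is scored 0–9 by eye relative to a control after four to five weeks.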

[2] = tested on: ABUTH (Abutilon theophrasti); experiment: Preemergence herbicidal evaluation; type: in vivo, Medic.; settings: rated 4-5 weeks after treatment
[3] = tested on: GLXMAW (Soybean, Williams); experiment: Postemergence herbicidal evaluation; type: in vivo, Glycine max, (L.) Merr. cv Williams; settings: postemergence, rate 0.0320 kg/ha
Method in brief: (§2)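 Seedlings grown for about two weeks were sprayed postemergence and then kept under standard greenhouse care. Injury was rated visually 4–5 weeks after treatment on a 0–9 scale against untreated controls, and ratings from repeat tests were averaged.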

[4] = tested on: ECHCG (Echinochloa crus-galli); experiment: Preemergence herbicidal evaluation; type: in vivo, (L.) Beau; settings: rated 4-5 weeks after treatment
Method in brief: as §1

SETVI (Setaria viridis) [5] = experiment: Preemergence herbicidal evaluation; type: in vivo, (L.) Beau; settings: rated 4-5 weeks after treatment
Method in brief: as §1

GALAP (Galium aparine) [6] = experiment: Postemergence herbicidal evaluation; type: in vivo; settings: postemergence, rate 0.0320 kg/ha
Method in brief: as §2

ORYSAT (Rice, Tebonnet) = experiment: Flooded paddy, post-transplant rice tolerance; type: in vivo, Oryza sativa, (L.) Tebonnet; settings: flooded paddy, post-transplant rice, rated 3-4 weeks after treatment, 0-9 rating scale
Method in brief: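 Visual 0–9 injury rating against a control, covering stand, vigor, malformation, size, chlorosis and overall appearance. Treatment was post-transplant onto flooded containers (water 1.5–3 cm deep, silt loam) holding two ten-day-old cv. Tebonnet seedlings, maintained on greenhouse benches.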

[7] = tested on: MOOVA (Monochoria vaginalis); experiment: Flooded paddy, preemergence weed control; type: in vivo, Presl.; settings: rated 3-4 weeks after treatment, 0-9 rating scale
Method in brief: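 Seeds or propagating organs were sown in the top 0.5 cm of silt loam soil, flooded, and the water kept 1.5 to 3 cm above the soil surface throughout. Plants were grown in the greenhouse and rated visually on a 0-9 scale against a control.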

[8] = tested on: TRZAWR (Wheat, Winter, cv Riband); experiment: Postemergence herbicidal evaluation; type: in vivo, Triticum aestivum; settings: postemergence, rate 0.0320 kg/ha
Method in brief: as §2

SETVI (Setaria viridis) [9] = experiment: Postemergence herbicidal evaluation; type: in vivo, (L.) Beau; settings: postemergence
Method in brief: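 Seedlings grown about two weeks were sprayed with compound in 50/50 acetone/water containing 0.5% TWEEN 20, at about 0.0040 to 1.000 kg/ha via nozzle at 40 psi. Plants were kept under greenhouse conditions and visually rated on a 0-9 scale versus control four to five weeks after treatment; replicate tests averaged.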

ZEAMX (Corn, Field) = experiment: Preemergence herbicidal evaluation; type: in vivo, Zea mays, L.; settings: rated 4-5 weeks after treatment
[10] = tested on: ABUTH (Abutilon theophrasti); experiment: Postemergence herbicidal evaluation; type: in vivo, Medic.; settings: postemergence
Method in brief: as §2

[11] = tested on: IPOHE (Ipomoea hederacea); experiment: Postemergence herbicidal evaluation; type: in vivo, (L.) Jacq.; settings: postemergence
Method in brief: as §2

[12] = tested on: CHEAL (Chenopodium album); experiment: Preemergence herbicidal evaluation; type: in vivo, L.; settings: rated 4-5 weeks after treatment
Method in brief: as §1

[13] = tested on: AMBEL (Ambrosia artemisifolia); experiment: Preemergence herbicidal evaluation; type: in vivo, L.; settings: rated 4-5 weeks after treatment
Method in brief: as §1

[14] = tested on: CASOB (Cassia obtusifolia); experiment: Preemergence herbicidal evaluation; type: in vivo, L.; settings: rated 4-5 weeks after treatment
Method in brief: as §1

[15] = tested on: CYPSE (Cyperus serotinus); experiment: Flooded paddy, preemergence weed control; type: in vivo, Rottb.; settings: rated 3-4 weeks after treatment, 0-9 rating scale
Method in brief: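 Herbicidal effect was scored visually on a 0–9 scale against an untreated control 3–4 weeks after treatment. Compounds were applied preemergence as 50/50 v/v aqueous/acetone mixtures into flood water (1.5–3 cm deep over silt loam), at roughly 0.0080 to 0.1250 kg/ha active ingredient.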

Cn1c(C(F)(F)F)cc(=O)n(-c2cc3c(C4OCCO4)nsc3cc2F)c1=O [Compound 61, 3-[3-(1,3-dioxolan-2-yl)-6-fluoro-1,2-benzisothiazol-5-yl]-1-methyl-6-(trifluoromethyl)uracil]
5.5: TRZAWR herbicidal rating [8]
0.0: Preemergence herbicidal rating GALAP (GALAP (Galium aparine) [1]; Rate 0.0002 kg/ha) | Preemergence herbicidal rating ABUTH ([2]; Rate 0.0002 kg/ha) | Preemergence herbicidal rating ECHCG ([4]; Rate 0.0002 kg/ha) | Preemergence herbicidal rating SETVI (SETVI (Setaria viridis) [5]; Rate 0.0002 kg/ha) | Preemergence herbicidal rating ZEAMX (ZEAMX (Corn, Field); Rate 0.0002 kg/ha) | Preemergence herbicidal rating AMBEL ([13]; Rate 0.0002 kg/ha) | Preemergence herbicidal rating CASOB ([14]; Rate 0.0002 kg/ha)
7.0: Preemergence herbicidal rating CASOB ([14]; Rate 0.0320 kg/ha)
7.3: Preemergence herbicidal rating CASOB ([14]; Rate 0.0160 kg/ha)
8.0: herbicidal rating, ORYSAT (rice tolerance) (ORYSAT (Rice, Tebonnet); rate 0.0080 kg/ha) | SETVI herbicidal rating (SETVI (Setaria viridis) [9]; rate 0.0620 kg/ha)
8.3: Preemergence herbicidal rating ZEAMX (ZEAMX (Corn, Field); Rate 0.0160 kg/ha)
8.5: Preemergence herbicidal rating GALAP (GALAP (Galium aparine) [1]; Rate 0.0160 kg/ha) | herbicidal rating, MOOVA ([7]; rate 0.0080 kg/ha)
7.5: SETVI herbicidal rating (SETVI (Setaria viridis) [9]; rate 0.0320 kg/ha)
2.0: Preemergence herbicidal rating CHEAL ([12]; Rate 0.0002 kg/ha)
9.0: Preemergence herbicidal rating GALAP (GALAP (Galium aparine) [1]; Rate 0.0320 kg/ha) | Preemergence herbicidal rating ABUTH ([2]; Rate 0.0160 kg/ha) | Preemergence herbicidal rating ABUTH ([2]; Rate 0.0320 kg/ha) | GLXMAW herbicidal rating [3] | Preemergence herbicidal rating ECHCG ([4]; Rate 0.0160 kg/ha) | Preemergence herbicidal rating ECHCG ([4]; Rate 0.0320 kg/ha) | Preemergence herbicidal rating SETVI (SETVI (Setaria viridis) [5]; Rate 0.0160 kg/ha) | Preemergence herbicidal rating SETVI (SETVI (Setaria viridis) [5]; Rate 0.0320 kg/ha) | GALAP herbicidal rating (GALAP (Galium aparine) [6]) | herbicidal rating, ORYSAT (rice tolerance) (ORYSAT (Rice, Tebonnet); rate 0.0320 kg/ha) | herbicidal rating, ORYSAT (rice tolerance) (ORYSAT (Rice, Tebonnet); rate 0.1250 kg/ha) | herbicidal rating, MOOVA ([7]; rate 0.0320 kg/ha) | herbicidal rating, MOOVA ([7]; rate 0.1250 kg/ha) | Preemergence herbicidal rating ZEAMX (ZEAMX (Corn, Field); Rate 0.0320 kg/ha) | ABUTH herbicidal rating ([10]; rate 0.0320 kg/ha) | ABUTH herbicidal rating ([10]; rate 0.0620 kg/ha) | IPOHE herbicidal rating ([11]; rate 0.0320 kg/ha) | IPOHE herbicidal rating ([11]; rate 0.0620 kg/ha) | Preemergence herbicidal rating CHEAL ([12]; Rate 0.0160 kg/ha) | Preemergence herbicidal rating CHEAL ([12]; Rate 0.0320 kg/ha) | Preemergence herbicidal rating AMBEL ([13]; Rate 0.0160 kg/ha) | Preemergence herbicidal rating AMBEL ([13]; Rate 0.0320 kg/ha) | herbicidal rating, CYPSE ([15]; rate 0.0320 kg/ha) | herbicidal rating, CYPSE ([15]; rate 0.1250 kg/ha)

Reference: US6706663B2, “Herbicidal 3-heterocyclic substituted benzisothiazole and benzisoxazole compounds” (Wyeth, priority 2000, dated 2004)
